Where two headings read alike, the source gives them in different places.
Legend:
KRAS G12D = KRAS G12D (Homo sapiens, UniProt P01116, G12D); experiment: KRAS G12D Probe Displacement Assay (TR-FRET, GDP-loaded); assay type: binding
Excerpt: (§1) The synthetic routes of probe 1 and 2, which have been disclosed in PCT/CN2022/070676, are hereby incorporated herein.

WT KRAS = WT KRAS (Homo sapiens, UniProt P01116); experiment: KRAS WT Probe Displacement Assay (TR-FRET, GDP-loaded); assay type: binding
Chain of WT KRAS (P01116 1-188 isoform P01116-2): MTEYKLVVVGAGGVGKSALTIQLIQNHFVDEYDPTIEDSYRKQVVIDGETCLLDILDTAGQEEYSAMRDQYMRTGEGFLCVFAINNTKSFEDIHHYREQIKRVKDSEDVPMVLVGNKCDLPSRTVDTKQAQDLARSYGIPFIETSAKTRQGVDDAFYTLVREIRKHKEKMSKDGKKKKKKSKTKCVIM
Excerpt: as §1

[1] = KRAS G12D, read-out: KRAS^G12D Probe Displacement Assay IC50
[2] = KRAS WT, read-out: KRAS^WT Probe Displacement Assay IC50

Chain of KRAS G12D (P01116 1-188 isoform P01116-2 G12D): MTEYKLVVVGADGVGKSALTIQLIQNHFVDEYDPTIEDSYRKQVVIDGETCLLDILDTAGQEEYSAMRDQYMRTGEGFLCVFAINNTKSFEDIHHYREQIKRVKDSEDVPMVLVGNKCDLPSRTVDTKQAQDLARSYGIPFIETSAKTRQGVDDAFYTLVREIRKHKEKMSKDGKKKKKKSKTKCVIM

## CO[C@@H]1CCN(CC2(COc3nc4c5c(nc(-c6cc(N)cc(C)c6C(F)(F)F)c(F)c5n3)OCC[C@@H]3[C@@H]5CC[C@H](CN43)N5)CC2)C1 [Example 87, 3-((6aR,7S,10R)-1-fluoro-13-((1-(((R)-3-methoxypyrrolidin-1-yl)methyl)cyclopropyl)methoxy)-5,6,6a,7,8,9,10,11-octahydro-4-oxa-3,11a,12,14,15-pentaaza-7,10-methanocyclohepta [4,5]cycloocta [1,2,3-de]naphthalen-2-yl)-5-methyl-4-(trifluoromethyl)aniline]
KRAS G12D; [1]
  IC50: < 0.3 nM
WT KRAS; [2]
  IC50: 3 to 1000 nM

## Cc1cc(N)cc(-c2nc3c4c(nc(OCC5(CN6C[C@H](C)O[C@@H](C)C6)CC5(F)F)nc4c2F)N2C[C@H]4CC[C@H](N4)[C@H]2CCO3)c1C(F)(F)F (single isomer, unassigned) [Example 26]
KRAS G12D; [1]
  IC50: 0.3 to 3 nM
WT KRAS; [2]
  IC50: 3 to 1000 nM

## Cc1cc(N)cc(-c2nc3c4c(nc(OCC5(C)COCC5N(C)C)nc4c2F)N2C[C@H]4CC[C@H](N4)[C@H]2CCO3)c1C(F)(F)F (single isomer, unassigned) [Example 42]
KRAS G12D; [1]
  IC50: 0.3 to 3 nM
WT KRAS; [2]
  IC50: 3 to 1000 nM

## Cc1cc(N)cc(-c2nc3c4c(nc(OCC5(CN6CCC(F)(F)CC6)CC5)nc4c2F)N2C[C@H]4CC[C@H](N4)[C@H]2CCO3)c1C(F)(F)F [Example 70, 3-((6aR,7S,10R)-13-((1-((4,4-difluoropiperidin-1-yl)methyl)cyclopropyl)methoxy)-1-fluoro-5,6,6a,7,8,9,10,11-octahydro-4-oxa-3,11a,12,14,15-pentaaza-7,10-methanocyclohepta[4,5]cycloocta [1,2,3-de]naphthalen-2-yl)-5-methyl-4-(trifluoromethyl)aniline]
KRAS G12D; [1]
  IC50: < 0.3 nM
WT KRAS; [2]
  IC50: 0.3 to 3 nM

## COC1CCCN(CC2(COc3nc4c5c(nc(-c6cc(N)cc(C)c6C(F)(F)F)c(F)c5n3)OCC[C@@H]3[C@@H]5CC[C@H](CN43)N5)CC2)C1 (stereo partly drawn) [Example 119, 3-((6aR,7S,10R)-1-fluoro-13-((1-((3-methoxypiperidin-1-yl)methyl)cyclopropyl)methoxy)-5,6,6a,7,8,9,10,11-octahydro-4-oxa-3,11a,12,14,15-pentaaza-7,10-methanocyclohepta [4,5]cycloocta[1,2,3-de]naphthalen-2-yl)-5-methyl-4-(trifluoromethyl) aniline]
KRAS G12D; KRAS^G12D Probe Displacement Assay IC50, KRAS G12D
  IC50: < 0.3 nM
WT KRAS; KRAS^WT Probe Displacement Assay IC50, KRAS WT
  IC50: 3 to 1000 nM

## [2H]C([2H])([2H])N1C[C@H](OC)C[C@H]1[C@H](C)Oc1nc2c3c(nc(-c4cc(N)cc(Cl)c4C(F)(F)F)c(F)c3n1)OCC[C@@H]1[C@@H]3CC[C@H](CN21)N3 [Example 220, 3-chloro-5-((6aR,7S,10R)-1-fluoro-13-((S)-1-((2S,4R)-4-methoxy-1-(methyl-d3)pyrrolidin-2-yl)ethoxy)-5,6,6a,7,8,9,10,11-octahydro-4-oxa-3,11a,12,14,15-pentaaza-7,10-methanocyclohepta[4,5]cycloocta[1,2,3-de]naphthalen-2-yl)-4-(trifluoromethyl)aniline]
KRAS G12D; [1]
  IC50: < 0.3 nM
WT KRAS; [2]
  IC50: 3 to 1000 nM

## Cc1cc(N)cc(-c2nc3c4c(nc(OCC5(CN6CC7(C6)CC(F)(F)C7)CC5)nc4c2F)N2C[C@H]4CC[C@H](N4)[C@H]2CCO3)c1C(F)(F)F [Example 176, 3-((6aR,7S,10R)-13-((1-((6,6-difluoro-2-azaspiro[3.3]heptan-2-yl)methyl)cyclopropyl)methoxy)-1-fluoro-5,6,6a,7,8,9,10,11-octahydro-4-oxa-3,11a,12,14,15-pentaaza[7,10]methanocyclohepta[4,5]cycloocta[1,2,3-de]naphthalen-2-yl)-5-methyl-4-(trifluoromethyl)aniline]
KRAS G12D; [1]
  IC50: < 0.3 nM
WT KRAS; [2]
  IC50: 3 to 1000 nM

## CO[C@H]1CN2C[C@H](F)C[C@]2(COc2nc3c4c(nc(-c5cc(N)cc(Cl)c5C(F)(F)F)c(F)c4n2)OCC[C@@H]2[C@@H]4CC[C@H](CN32)N4)C1 [Example 215, 3-chloro-5-((6aR,7S,10R)-1-fluoro-13-(((2R,6R,7aS)-2-fluoro-6-methoxytetrahydro-1H-pyrrolizin-7a(5H)-yl)methoxy)-5,6,6a,7,8,9,10,11-octahydro-4-oxa-3,11a,12,14,15-pentaaza-7,10-methanocyclohepta[4,5]cycloocta[1,2,3-de]naphthalen-2-yl)-4-(trifluoromethyl)aniline]
KRAS G12D; [1]
  IC50: < 0.3 nM
WT KRAS; [2]
  IC50: 3 to 1000 nM

## Cc1cc(N)cc(-c2nc3c4c(nc(O[C@@H](C)[C@@H]5CCCN5C5COC5)nc4c2F)N2C[C@H]4CC[C@H](N4)[C@H]2CCO3)c1C(F)(F)F [Example 227, 3-((6aR,7S,10R)-1-fluoro-13-((S)-1-((S)-1-(oxetan-3-yl)pyrrolidin-2-yl)ethoxy)-5,6,6a,7,8,9,10,11-octahydro-4-oxa-3,11a,12,14,15-pentaaza-7,10-methanocyclohepta[4,5]cycloocta[1,2,3-de]naphthalen-2-yl)-5-methyl-4-(trifluoromethyl)aniline]
KRAS G12D; [1]
  IC50: < 0.3 nM
WT KRAS; [2]
  IC50: 3 to 1000 nM

## Cc1cc(N)cc(-c2nc3c4c(nc(OCC56C=CCN5C[C@H](F)C6)nc4c2F)N2C[C@H]4CC[C@H](N4)[C@H]2CCO3)c1C(F)(F)F (single isomer, unassigned) [Example 204]
KRAS G12D; [1]
  IC50: < 0.3 nM
WT KRAS; [2]
  IC50: 3 to 1000 nM

## Cc1cc(N)cc(-c2nc3c4c(nc(OCC5(CN6CC(F)(F)C6)CC5)nc4c2F)N2C[C@H]4CC[C@H](N4)[C@H]2CCO3)c1C(F)(F)F [Example 82, 3-((6aR,7S,10R)-13-((1-((3,3-difluoroazetidin-1-yl)methyl)cyclopropyl)methoxy)-1-fluoro-5,6,6a,7,8,9,10,11-octahydro-4-oxa-3,11a,12,14,15-pentaaza-7,10-methanocyclohepta [4,5]cycloocta [1,2,3-de]naphthalen-2-yl)-5-methyl-4-(trifluoromethyl)aniline]
KRAS G12D; [1]
  IC50: 0.3 to 3 nM
WT KRAS; [2]
  IC50: 3 to 1000 nM

## Nc1cc(Cl)c(C(F)(F)F)c(-c2nc3c4c(nc(OCC5(CN6CCC(=CF)CC6)CC5)nc4c2F)N2C[C@H]4CC[C@H](N4)[C@H]2CCO3)c1 [Example 156, 3-chloro-5-((6aR,7S,10R)-1-fluoro-13-((1-((4-(fluoromethylene)piperidin-1-yl)methyl)cyclopropyl)methoxy)-5,6,6a,7,8,9,10,11-octahydro-4-oxa-3,11a,12,14,15-pentaaza-7,10-methanocyclohepta[4,5]cycloocta [1,2,3-de]naphthalen-2-yl)-4-(trifluoromethyl)aniline]
KRAS G12D; [1]
  IC50: < 0.3 nM
WT KRAS; [2]
  IC50: 0.3 to 3 nM

## Cc1cc(N)cc(-c2nc3c4c(nc(OCC5(CN6CCC7(CC6)CC7(F)F)CC5)nc4c2F)N2C[C@H]4CC[C@H](N4)[C@H]2CCO3)c1C(F)(F)F [Example 158, 3-((6aR,7S,10R)-13-((1-((1,1-difluoro-6-azaspiro[2.5]octan-6-yl)methyl)cyclopropyl)methoxy)-1-fluoro-5,6,6a,7,8,9,10,11-octahydro-4-oxa-3,11a,12,14,15-pentaaza[7,10]methanocyclohepta[4,5]cycloocta[1,2,3-de]naphthalen-2-yl)-5-methyl-4-(trifluoromethyl)aniline]
KRAS G12D; [1]
  IC50: < 0.3 nM
WT KRAS; [2]
  IC50: 0.3 to 3 nM

## CN(C)C1(C)CN(c2nc3c4c(nc(-c5cc(N)cc(Cl)c5C(F)(F)F)c(F)c4n2)OCC[C@@H]2[C@@H]4CC[C@H](CN32)N4)C1 [Example 31, 1-((6aR,7S,10R)-2-(5-amino-3-chloro-2-(trifluoromethyl)phenyl)-1-fluoro-5,6,6a,7,8,9,10,11-octahydro-4-oxa-3,11a,12,14,15-pentaaza-7,10-methanocyclohepta[4,5]cycloocta [1,2,3-de]naphthalen-13-yl)-N,N,3-trimethylazetidin-3-amine]
KRAS G12D; [1]
  IC50: 0.3 to 3 nM
WT KRAS; [2]
  IC50: 3 to 1000 nM

## Cc1cc(N)cc(-c2nc3c4c(nc(O[C@@H](C)[C@@H]5CCCN5C5CCOC5)nc4c2F)N2C[C@H]4CC[C@H](N4)[C@H]2CCO3)c1C(F)(F)F (single isomer, unassigned) [Example 228]
KRAS G12D; [1]
  IC50: < 0.3 nM
WT KRAS; [2]
  IC50: 3 to 1000 nM

## Cc1cc(N)cc(-c2nc3c4c(nc(OCC5(CN6C[C@H]7C[C@@H]6CO7)CC5)nc4c2F)N2C[C@H]4CC[C@H](N4)[C@H]2CCO3)c1C(F)(F)F [Example 65, 3-((6aR,7S,10R)-13-((1-(((1R,4R)-2-oxa-5-azabicyclo[2.2.1]heptan-5-yl)methyl)cyclopropyl)methoxy)-1-fluoro-5,6,6a,7,8,9,10,11-octahydro-4-oxa-3,11a,12,14,15-pentaaza-7,10-methanocyclohepta[4,5]cycloocta [1,2,3-de]naphthalen-2-yl)-5-methyl-4-(trifluoromethyl)aniline]
KRAS G12D; [1]
  IC50: < 0.3 nM
WT KRAS; [2]
  IC50: 3 to 1000 nM

## Cc1cc(N)cc(-c2nc3c4c(nc(OCC5(CN6CCc7cnn(C)c7C6)CC5)nc4c2F)N2C[C@H]4CC[C@H](N4)[C@H]2CCO3)c1C(F)(F)F [Example 193]
KRAS G12D; [1]
  IC50: < 0.3 nM
WT KRAS; [2]
  IC50: 3 to 1000 nM

## Cc1cc(N)cc(-c2nc3c4c(nc(OCC5(CN6C[C@@H](C)O[C@@H](C)C6)CC5)nc4c2F)N2C[C@H]4CC[C@H](N4)[C@H]2CCO3)c1C(F)(F)F [Example 64, 3-((6aR,7S,10R)-13-((1-(((2S,6R)-2,6-dimethylmorpholino)methyl)cyclopropyl)methoxy)-1-fluoro-5,6,6a,7,8,9,10,11-octahydro-4-oxa-3,11a,12,14,15-pentaaza-7,10-methanocyclohepta[4,5]cycloocta [1,2,3-de]naphthalen-2-yl)-5-methyl-4-(trifluoromethyl)aniline]
KRAS G12D; [1]
  IC50: < 0.3 nM
WT KRAS; [2]
  IC50: 0.3 to 3 nM

## Cc1cc(N)cc(-c2nc3c4c(nc(OCC5(CN6CCOCC6)CC5)nc4c2F)N2C[C@H]4CC[C@H](N4)[C@H]2CCO3)c1C(F)(F)F [Example 67, 3-((6aR,7S,10R)-1-fluoro-13-((1-(morpholinomethyl)cyclopropyl)methoxy)-5,6,6a,7,8,9,10,11-octahydro-4-oxa-3,11a,12,14,15-pentaaza-7,10-methanocyclohepta[4,5]cycloocta [1,2,3-de]naphthalen-2-yl)-5-methyl-4-(trifluoromethyl)aniline]
KRAS G12D; [1]
  IC50: < 0.3 nM
WT KRAS; [2]
  IC50: 3 to 1000 nM

From patent publication US20260347373A1, “HETEROCYCLIC COMPOUNDS, COMPOSITIONS THEREOF, AND METHODS OF TREATMENT THEREWITH” (BeOne Medicines I GmbH, priority 2023, published 2026)
